Measurements: PubChem BioAssay (NCI)
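Grown in 96-well plates, cells were treated for 48 hours with each compound at five concentrations. Insufficient inhibition: endpoint recorded as highest concentration tested. Abbreviation: GI50, concentration required for 50% inhibition of growth. The concentration for full growth arrest is given as TGI.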

Tests used:
Assay in all cases: NCI-60 cell line screen, 48 h
[1] = test system: HCT-116 colon
[2] = test system: A498 renal
[3] = test system: ACHN renal
[4] = test system: UACC-257 melanoma
[5] = test system: NCI-H460 lung
[6] = test system: SK-OV-3 ovarian
[7] = test system: CAKI-1 renal
[8] = test system: MDA-MB-231 breast
[9] = test system: LOX IMVI melanoma
[10] = test system: CCRF-CEM leukemia
[11] = test system: UACC-62 melanoma
[12] = test system: COLO 205 colon
[13] = test system: EKVX NSCLC
[14] = test system: RPMI-8226 leukemia
[15] = test system: OVCAR-4 ovarian
[16] = test system: SW-620 colon
[17] = test system: A549 NSCLC
[18] = test system: MDA-N
[19] = test system: HOP-92 NSCLC
[20] = test system: SK-MEL-5 melanoma
[21] = test system: SF-539 CNS
[22] = test system: MDA-MB-435
[23] = test system: OVCAR-8 ovarian
[24] = test system: SF-295 CNS
[25] = test system: HS 578T breast
[26] = test system: UO-31 renal
[27] = test system: MALME-3M melanoma
[28] = test system: SK-MEL-2 melanoma
[29] = test system: RXF 393 renal
[30] = test system: HL-60(TB) leukemia
[31] = test system: SF-268 CNS
[32] = test system: SK-MEL-28 melanoma
[33] = test system: NCI-H23 lung
[34] = test system: SN12C renal
[35] = test system: NCI/ADR-RES ovarian
[36] = test system: 786-0 renal
[37] = test system: MOLT-4 leukemia
[38] = test system: HOP-62 NSCLC
[39] = test system: OVCAR-5 ovarian
[40] = test system: OVCAR-3 ovarian
[41] = test system: T-47D breast
[42] = test system: NCI-H522 lung
[43] = test system: M14 melanoma
[44] = test system: DU-145 prostate
[45] = test system: SR leukemia
[46] = test system: SNB-19 CNS
[47] = test system: HCC-2998 colon
[48] = test system: SNB-75 CNS
[49] = test system: IGROV1 ovarian
[50] = test system: K-562 leukemia
[51] = test system: U251 CNS
[52] = test system: NCI-H226 lung
[53] = test system: KM12 colon
[54] = test system: HCT-15 colon
[55] = test system: BT-549 breast
[56] = test system: PC-3 prostate
[57] = test system: MCF7 breast
[58] = test system: HT29 colon
[59] = test system: TK-10 renal
[60] = test system: XF 498 CNS
[61] = test system: M19-MEL melanoma
[62] = test system: DMS 114 small cell lung
[63] = test system: SNB-78 CNS
[64] = test system: HOP-18 NSCLC
[65] = test system: DLD-1 colon
[66] = test system: KM20L2 colon

What does the source list for `COC(=O)c1cc(C#N)[nH]c1-c1ccc(Br)s1`?
TGI [1]: 26.3 µM; TGI [2]: 9.9 µM; TGI [3]: 31.9 µM; TGI [4]: 24.9 µM; TGI [5]: 37.8 µM; TGI [6]: 24.7 µM; TGI [7]: > 50.7 µM; TGI [8]: 30.7 µM; TGI [9]: 23.1 µM; TGI [10]: 49.9 µM; TGI [11]: 26 µM; TGI [12]: 29.1 µM; TGI [13]: 17.1 µM; TGI [14]: > 73.3 µM; TGI [15]: 36.7 µM; TGI [16]: 29.9 µM; TGI [17]: 23 µM; TGI [18]: 27.9 µM; TGI [19]: 15.3 µM; TGI [20]: 15.3 µM; TGI [21]: 27.2 µM; TGI [22]: 34.5 µM; TGI [23]: 27.1 µM; TGI [24]: 21.1 µM; TGI [25]: 20.8 µM; TGI [26]: 15.6 µM; TGI [27]: 19.7 µM; TGI [28]: 18.6 µM; TGI [29]: 19.4 µM; TGI [30]: 36.5 µM; TGI [31]: 24.2 µM; TGI [32]: 24.4 µM; TGI [33]: 18.9 µM; TGI [34]: 26 µM; TGI [35]: 30.6 µM; TGI [36]: 27.7 µM; TGI [37]: 64.9 µM; TGI [38]: 21.4 µM; TGI [39]: 24.1 µM; TGI [40]: 15.9 µM; TGI [41]: 17.2 µM; TGI [42]: 19.6 µM; TGI [43]: 22.9 µM; TGI [44]: 31.6 µM; TGI [45]: > 51.9 µM; TGI [46]: 22.3 µM; TGI [47]: 31.8 µM; TGI [48]: 24.9 µM; TGI [49]: 20.9 µM; TGI [50]: > 48.4 µM; TGI [51]: 24.8 µM; TGI [52]: 26.3 µM; TGI [53]: > 50 µM; TGI [54]: 28 µM; TGI [55]: 22.8 µM; TGI [56]: 13.4 µM; TGI [57]: 18.6 µM; TGI [58]: 24.8 µM; TGI [59]: 25.7 µM

What does the source list for `N#CC(Cl)CS(=O)(=O)c1ccccc1` (centres undefined)?
TGI [1]: 12.2 µM; TGI [60]: 9.64 µM; TGI [2]: 30.9 µM; TGI [3]: 9.96 µM; TGI [4]: 14 µM; TGI [5]: 38.8 µM; TGI [6]: 33.6 µM; TGI [7]: 10.2 µM; TGI [8]: 41.4 µM; TGI [9]: 22 µM; TGI [11]: 26.5 µM; TGI [61]: 29.2 µM; TGI [62]: 9.34 µM; TGI [12]: 3.8 µM; TGI [13]: 38.6 µM; TGI [14]: 14.1 µM; TGI [15]: 4.24 µM; TGI [16]: 3.75 µM; TGI [17]: 41.7 µM; TGI [63]: 61.3 µM; TGI [18]: 20.2 µM; TGI [19]: 4.1 µM; TGI [20]: 29.6 µM; TGI [21]: 28.5 µM; TGI [22]: 32.1 µM; TGI [64]: 22 µM; TGI [23]: 11.1 µM; TGI [24]: 36.3 µM; TGI [25]: > 100 µM; TGI [26]: 33.5 µM; TGI [27]: 4.54 µM; TGI [28]: 33 µM; TGI [29]: 6.31 µM; TGI [30]: > 100 µM; TGI [31]: 24.3 µM; TGI [32]: 28 µM; TGI [33]: 33.5 µM; TGI [34]: 31.7 µM; TGI [36]: 30.5 µM; GI50 [37]: 0.0561 µM; TGI [37]: 3.62 µM; TGI [38]: > 59.1 µM; TGI [39]: 35.3 µM; TGI [40]: 7.17 µM; TGI [41]: 6.06 µM; TGI [65]: 3.98 µM; TGI [42]: 2.26 µM; TGI [43]: 9.59 µM; TGI [44]: 32.4 µM; TGI [45]: 12.1 µM; TGI [46]: 35.1 µM; TGI [47]: 29.4 µM; TGI [66]: 39.4 µM; TGI [48]: 37.1 µM; TGI [49]: 38 µM; TGI [50]: 4.85 µM; TGI [51]: 44.7 µM; TGI [52]: 46.7 µM; TGI [53]: 33.3 µM; TGI [54]: 5.38 µM; TGI [55]: 30.9 µM; TGI [56]: 31.6 µM; TGI [57]: 32.8 µM; TGI [58]: 53.1 µM; TGI [59]: 6.85 µM
